Test results reported in patent US11066409B2, “Bicyclic nitrogen-containing heterocyclic derivatives and pharmaceutical composition comprising the same” (Shionogi & Co., Ltd., priority 2016, dated 2021).

Biological target: human P2X7 receptor (Homo sapiens (Human), UniProt Q99572, R270H)
Test: Evaluation of a human P2X7 receptor inhibitory activity (Yo-Pro uptake, BzATP stimulation, FLIPR TETRA)
Assay type: cell-based
Details: 1321N1 cells stably expressing human P2X7 receptor, Yo-Pro fluorescence
Protocol: Evaluation of a human P2X7 receptor inhibitory activity Stably expressing cell line (1321N1 cell transfected with the human P2X7 receptor gene (GenBank accession number NM_002562.5 including T606C and G952A SNP)) was used. The cells were seeded in a 384-well microtiter plate at a concentration of 8000 cells/well and cultured in the medium (10% fetal bovine serum, 25 mM HEPES, 1% penicillin and streptomycin in DMEM) for one day at 37° C. under 5% carbon dioxide atmosphere. After replacing with 20 μL of the HBSS buffer (20 mM HEPES, 55.6 mM D-glucose, 1× HBSS(−), pH7.4-7.5), 15 μL of 17.3 μM Yo-Pro solution in the HBSS buffer was added. The plate was placed in high-throughput cellular screening system FLIPR TETRA (Molecullar Devices, LLC.) and 15 μL of 130 μM BzATP solution in the HBSS buffer was added. Measurement of fluorescence intensity by FLIPR TETRA was started. After eight minutes, 15 μL of DMSO solutions containing different concentrations of the compound of the present invention as prepared by dilution with the HBSS buffer were dispensed to each well through the built-in automatic dispenser, and the measurement of fluorescence intensity was continued for 20 minutes. The maximum fluorescence intensity without the compound of the present invention is calculated as 0% inhibition and the maximum fluorescence intensity when the reference compound was added is calculated as 100% inhibition. Changing values of fluorescence intensity by the compound of the present invention were calculated by difference between maximum and minimum fluorescence intensity for 20 minutes. Inhibition ratios (%) were calculated from the following equation:
[formula] IC50 was calculated using logistic approximation.
As for IC50 value, value to below 10 nmol/L is represented as “A”, value from 10 nmol/L to below 100 nmol/L is represented as “B”, value from 100 nmol/L to below 500 nmol/L is represented as “C”, and value from 500 nmol/L to below 1 μmol/L is represented as “D”.

human P2X7 receptor, sequence (Q99572 whole entry R270H): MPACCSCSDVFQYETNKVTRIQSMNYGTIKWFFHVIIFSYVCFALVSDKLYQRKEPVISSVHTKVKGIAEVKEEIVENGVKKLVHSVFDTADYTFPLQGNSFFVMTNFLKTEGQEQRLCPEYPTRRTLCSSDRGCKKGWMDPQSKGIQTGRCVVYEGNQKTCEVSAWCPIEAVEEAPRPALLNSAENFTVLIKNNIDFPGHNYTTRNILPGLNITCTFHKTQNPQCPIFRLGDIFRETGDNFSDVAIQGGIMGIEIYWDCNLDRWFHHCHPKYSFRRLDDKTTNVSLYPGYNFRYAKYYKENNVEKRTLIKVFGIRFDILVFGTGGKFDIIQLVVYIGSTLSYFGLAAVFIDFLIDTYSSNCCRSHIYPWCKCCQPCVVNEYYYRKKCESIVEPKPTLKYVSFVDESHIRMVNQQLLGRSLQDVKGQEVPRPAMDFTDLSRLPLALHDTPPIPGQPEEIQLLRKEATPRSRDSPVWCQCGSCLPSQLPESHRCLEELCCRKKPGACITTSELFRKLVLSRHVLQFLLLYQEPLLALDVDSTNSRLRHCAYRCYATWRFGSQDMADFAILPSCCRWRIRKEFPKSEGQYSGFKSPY

Row | SMILES | IC50
1 | C=Cc1c2n(c(Nc3ccc(OC)nc3C)nc1=O)C(c1cc(F)cc(F)c1)CC2 (centres unmarked) [Compound I-0091] | 17 nM
2 | Cc1nc2cc(C)c(Nc3nc(=O)cc4n3C(c3ccccc3)CN4)cc2s1 (centres unmarked) [Compound I-0100] | 12 nM
3 | Cc1cc(C)c(Nc2nc(=O)cc3n2C(c2ccccc2)CN3C)cc1C (centres unmarked) [Compound I-0106] | 11 nM
4 | CCN1C(=O)N=C(Nc2cc(C)c(C)cc2C)N2C1=NCC2c1ccccc1 (centres unmarked) [Compound I-0107] | 25 nM

Same assay, conditions: 1321N1 cells stably expressing human P2X7 receptor, Yo-Pro fluorescence, class symbols

Row | SMILES | IC50
5 | COc1nc(C)c(Nc2nc(=O)cc3n2C(c2cc(F)cc(F)c2)CC3)cc1F (centres unmarked) [Compound I-0072] | 10 to 100 nM
6 | Cc1cc2c(cc1/N=c1\[nH]c(=O)c(F)c3n1C(c1ccc(F)cc1F)CC3)COC2 (centres unmarked) [Compound I-0073] | 10 to 100 nM
7 | Cc1cc2c(cc1/N=c1\[nH]c(=O)c(F)c3n1C(c1ccc(F)cc1)CC3)COC2 (centres unmarked) [Compound I-0074] | < 10 nM
8 | CCOc1ccc(/N=c2\[nH]c(=O)cc3n2C(c2ccc(F)cc2F)CC3)c(CC)n1 (centres unmarked) [Compound I-0075] | 10 to 100 nM
9 | CCOc1ccc(/N=c2\[nH]c(=O)c(F)c3n2C(c2ccc(F)cc2F)CC3)c(CC)n1 (centres unmarked) [Compound I-0076] | 10 to 100 nM
10 | Cc1cc(OC(F)F)ccc1Nc1nc(=O)cc2n1C(c1ccc(F)cc1)CC2 (centres unmarked) [Compound I-0077] | < 10 nM
11 | COc1cnc(C)c(/N=c2\[nH]c(=O)c(F)c3n2C(c2ccc(F)cc2)CC3)c1 (centres unmarked) [Compound I-0078] | 10 to 100 nM
12 | COc1cnc(C)c(/N=c2\[nH]c(=O)cc3n2C(c2ccc(F)cc2)CC3)c1 (centres unmarked) [Compound I-0079] | 10 to 100 nM
13 | CCOc1ccc(/N=c2\[nH]c(=O)c(F)c3n2C(c2ccc(F)cc2)CC3)c(C)n1 (centres unmarked) [Compound I-0080] | < 10 nM
14 | CCOc1ccc(/N=c2\[nH]c(=O)c(F)c3n2C(c2ccc(F)cc2F)CC3)c(C)n1 (centres unmarked) [Compound I-0081] | 10 to 100 nM
15 | CCOc1nc(C)c(Nc2nc(=O)cc3n2C(c2ccc(F)cc2F)CC3)cc1F (centres unmarked) [Compound I-0082] | 10 to 100 nM
16 | CCOc1nc(C)c(Nc2nc(=O)c(F)c3n2C(c2ccc(F)cc2F)CC3)cc1F (centres unmarked) [Compound I-0083] | 10 to 100 nM
17 | COc1nc(C)c(Nc2nc(=O)cc3n2C(c2ccc(F)cc2F)CC3)cc1F (centres unmarked) [Compound I-0084] | 10 to 100 nM
18 | COc1ccc(Nc2nc(=O)c(Cl)c3n2C(c2cc(F)cc(F)c2)CC3)c(C)n1 (centres unmarked) [Compound I-0085] | 10 to 100 nM
19 | COc1ccc(Nc2nc(=O)c(Br)c3n2C(c2cc(F)cc(F)c2)CC3)c(C)n1 (centres unmarked) [Compound I-0086] | 10 to 100 nM
20 | COc1ccc(Nc2nc(=O)c(C)c3n2C(c2cc(F)cc(F)c2)CC3)c(C)n1 (centres unmarked) [Compound I-0087] | 10 to 100 nM
21 | Cc1[nH]c(=O)c(F)cc1Nc1nc(=O)cc2n1C(c1ccc(F)cc1F)CC2 (centres unmarked) [Compound I-0088] | 500 to 1000 nM
22 | COc1ccc(Nc2nc(=O)c(-c3ccccc3)c3n2C(c2cc(F)cc(F)c2)CC3)c(C)n1 (centres unmarked) [Compound I-0089] | 10 to 100 nM
23 | COc1nc(C)c(Nc2nc(=O)cc3n2C(c2cc(F)c(F)c(F)c2)CC3)cc1F (centres unmarked) [Compound I-0090] | 10 to 100 nM
24 | CCc1c2n(c(Nc3ccc(OC)nc3C)nc1=O)C(c1cc(F)cc(F)c1)CC2 (centres unmarked) [Compound I-0092] | 10 to 100 nM
25 | COc1ccc(/N=c2\[nH]c(=O)c(F)c3n2C(c2ccc(F)cc2F)CC3)c(C)n1 (centres unmarked) [Compound I-0093] | 100 to 500 nM
26 | COc1nc(C)c(Nc2nc(=O)cc3n2C(c2ccc(F)c(Cl)c2)CC3)cc1F (centres unmarked) [Compound I-0094] | 10 to 100 nM

Row | SMILES | IC50
27 | COc1ccc(/N=c2\[nH]c(=O)c(F)c3n2C(c2cc(F)cc(F)c2)CC3)c(C)n1 (centres unmarked) [Compound I-0095] | 10 to 100 nM
28 | CCOc1ccc(Nc2nc(=O)c(F)c3n2C(c2cc(F)cc(F)c2)CC3)c(CC)n1 (centres unmarked) [Compound I-0096] | 10 to 100 nM
29 | COc1ccc(Nc2nc(=O)c(F)c3n2C(c2cc(F)cc(F)c2)CC3)c(C)c1 (centres unmarked) [Compound I-0097] | < 10 nM
30 | COc1ccc(C)c(Nc2nc(=O)c(F)c3n2C(c2cc(F)cc(F)c2)CC3)c1 (centres unmarked) [Compound I-0098] | < 10 nM
31 | Cc1nc2cc(C)c(Nc3nc(=O)c(F)c4n3C(c3cc(F)cc(F)c3)CC4)cc2s1 (centres unmarked) [Compound I-0101] | 10 to 100 nM
32 | Cc1nc2cc(C)c(Nc3nc(=O)cc4n3C(c3ccccc3)CN4C)cc2s1 (centres unmarked) [Compound I-0103] | 10 to 100 nM
33 | COc1ccc(Nc2nc(=O)cc3n2C(c2ccccc2)CN3C)c(C)c1 (centres unmarked) [Compound I-0104] | 10 to 100 nM
34 | COc1ccc(C)c(Nc2nc(=O)cc3n2C(c2ccccc2)CN3C)c1 (centres unmarked) [Compound I-0105] | 10 to 100 nM
35 | COc1ccc(Nc2nc(=O)c(F)c3n2C(c2cc(F)cc(F)c2)CC3)c(C)c1F (centres unmarked) [Compound I-0108] | 10 to 100 nM
36 | CCN1C(=O)N=C(Nc2cc(C)c(C)cc2C)N2C1=NCC2c1ccc(F)cc1 (centres unmarked) [Compound I-0109] | 10 to 100 nM
37 | COc1ccc(Nc2nc(=O)cc3n2C(c2ccccc2)CN3C)c(C)c1 (centres unmarked) [Compound I-0110] | < 10 nM
38 | CCN1C(=O)N=C(Nc2cc(C)c(C)cc2C)N2C1=NCC2c1ccccc1 (centres unmarked) [Compound I-0111] | < 10 nM
39 | CCN1C(=O)N=C(Nc2ccc(C)nc2C)N2C1=NCC2c1ccc(F)cc1 (centres unmarked) [Compound I-0112] | 500 to 1000 nM
40 | CN1C(=O)N=C(Nc2cc(C3CC3)nn2C)N2C1=NCC2c1ccc(F)cc1 (centres unmarked) [Compound I-0113] | 500 to 1000 nM
41 | Cc1ccc(NC2=NC(=O)N(C)C3=NCC(c4cc(F)cc(F)c4)N23)c(C)n1 (centres unmarked) [Compound I-0114] | 100 to 500 nM
42 | Cc1ccc(NC2=NC(=O)N(C)C3=NCC(c4ccc(F)c(F)c4)N23)c(C)n1 (centres unmarked) [Compound I-0115] | 100 to 500 nM
43 | COc1cc(NC2=NC(=O)N(C)C3=NCC(c4ccc(F)c(F)c4)N23)c(C)nc1OC (centres unmarked) [Compound I-0116] | 100 to 500 nM
44 | CCN1C(=O)N=C(Nc2ccc(OC)nc2C)N2C1=NCC2c1ccc(F)cc1 (centres unmarked) [Compound I-0117] | 100 to 500 nM
45 | CCN1C(=O)N=C(Nc2cc(OC)c(OC)nc2C)N2C1=NCC2c1ccc(F)cc1 (centres unmarked) [Compound I-0118] | 100 to 500 nM
46 | COc1ccc(NC2=NC(=O)N(C)C3=NCC(c4ccc(F)cc4)N23)c(C)n1 (centres unmarked) [Compound I-0119] | 10 to 100 nM
47 | Cc1ccc(NC2=NC(=O)N(C)C3=NCC(c4ccc(F)cc4)N23)c(C)n1 (centres unmarked) [Compound I-0120] | 100 to 500 nM
48 | COc1cc(C)c(NC2=NC(=O)N(C)C3=NCC(c4ccc(F)cc4)N23)cc1OC (centres unmarked) [Compound I-0121] | 10 to 100 nM

Row | SMILES | IC50
49 | COc1ccc(NC2=NC(=O)N(C)C3=NCC(c4cc(F)cc(F)c4)N23)c(C)c1 (centres unmarked) [Compound I-0122] | 10 to 100 nM
50 | COc1cnc(C)c(Nc2nc(=O)c(F)c3n2C(c2cc(F)cc(F)c2)CC3)c1 (centres unmarked) [Compound I-0123] | 10 to 100 nM
51 | COc1ccc(C)c(NC2=NC(=O)N(C)C3=NCC(c4ccc(F)c(F)c4)N23)c1 (centres unmarked) [Compound I-0124] | 10 to 100 nM
52 | COc1ccc(NC2=NC(=O)N(C)C3=NCC(c4ccc(F)c(F)c4)N23)c(C)c1 (centres unmarked) [Compound I-0125] | 10 to 100 nM
53 | COc1cc(C)c(NC2=NC(=O)N(C)C3=NCC(c4ccc(F)c(F)c4)N23)cc1OC (centres unmarked) [Compound I-0126] | 10 to 100 nM
54 | COc1ccc(NC2=NC(=O)N(C)C3=NCC(c4ccc(F)c(F)c4)N23)c(C)n1 (centres unmarked) [Compound I-0127] | 10 to 100 nM
55 | COc1cc(Nc2nc(=O)cc3n2C(c2cc(F)cc(F)c2)CN3)c(C)cc1F (centres unmarked) [Compound I-0128] | 10 to 100 nM
56 | COc1ccc(C)c(NC2=NC(=O)N(C)C3=NCC(c4ccc(F)cc4)N23)c1 (centres unmarked) [Compound I-0129] | 10 to 100 nM
57 | COc1ccc(NC2=NC(=O)N(C)C3=NCC(c4ccc(F)cc4)N23)c(C)c1 (centres unmarked) [Compound I-0130] | 10 to 100 nM
58 | COc1ccc(C)c(NC2=NC(=O)N(C)C3=NCC(c4cc(F)cc(F)c4)N23)c1 (centres unmarked) [Compound I-0131] | 10 to 100 nM
59 | COc1cc(C)c(NC2=NC(=O)N(C)C3=NCC(c4cc(F)cc(F)c4)N23)cc1OC (centres unmarked) [Compound I-0132] | 10 to 100 nM
60 | COc1cc(NC2=NC(=O)N(C)C3=NCC(c4cc(F)cc(F)c4)N23)c(C)nc1OC (centres unmarked) [Compound I-0133] | 10 to 100 nM
61 | COc1cc(Nc2nc(=O)cc3n2C(c2cc(F)cc(F)c2)CN3)c(C)cc1F (centres unmarked) [Compound I-0134] | < 10 nM
62 | COc1nc(C)c(Nc2nc(=O)c(F)c3n2C(c2cc(F)cc(F)c2)CC3)cc1C (centres unmarked) [Compound I-0136] | 10 to 100 nM
63 | COc1ccc(NC2=NC(=O)N(C)C3=NCC(c4cc(F)cc(F)c4)N23)c(C)c1F (centres unmarked) [Compound I-0137] | 10 to 100 nM
64 | CCN1C(=O)N=C(Nc2cc(OC)c(OC)cc2C)N2C1=NCC2c1ccc(F)cc1 (centres unmarked) [Compound I-0138] | 10 to 100 nM
65 | CCN1C(=O)N=C(Nc2cc(OC)ccc2C)N2C1=NCC2c1ccc(F)cc1 (centres unmarked) [Compound I-0139] | 10 to 100 nM
66 | CCN1C(=O)N=C(Nc2ccc(OC)cc2C)N2C1=NCC2c1ccc(F)cc1 (centres unmarked) [Compound I-0140] | 10 to 100 nM
67 | COc1nc(C)c(Nc2nc(=O)c(F)c3n2C(c2cc(F)cc(F)c2)CC3)cc1F (centres unmarked) [Compound I-0141] | 10 to 100 nM
68 | COc1ccc(NC2=NC(=O)N(C)C3=NCC(c4cc(F)c(F)c(F)c4)N23)c(C)n1 (centres unmarked) [Compound I-0143] | 10 to 100 nM
